Reference: the NIST ThermoML archive (doi:10.1021/je5001389)
± gives the expanded uncertainty stated by the source.

What was measured:
[1] = DTA
[2] = Molar enthalpy of transition or fusion; settings: DSC

Structure (SMILES): c1ccc(-c2ccccc2)cc1 [biphenyl]
- Triple point temperature ([1]; Crystal): 340.69 ± 0.5 K
- Molar enthalpy of transition or fusion ([2]; Crystal): 4.45 ± 0.136 kcal/mol

Structure (SMILES): CCCCCCCCCCCCCCCCCCCCCCCCCC [hexacosane]
- Triple point temperature ([1]; Crystal 1): 329.21 ± 0.5 K
- Triple point temperature ([1]; Crystal 2): 326.4 ± 0.5 K
- Molar enthalpy of transition or fusion ([2]; Crystal 1): 16.3 ± 0.43 kcal/mol
- Molar enthalpy of transition or fusion ([2]; Crystal 2): 8.78 ± 0.239 kcal/mol

Structure (SMILES): c1ccc2c(c1)oc1ccccc12 [dibenzo[bd]furan]
- Triple point temperature ([1]; Crystal): 353.87 ± 0.5 K
- Molar enthalpy of transition or fusion ([2]; Crystal): 5.33 ± 0.16 kcal/mol
